The record followed here is ChEMBL document CHEMBL1201862, “PubChem BioAssay data set” (2004).

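96-well plates; 48 h exposure; 5 concentrations. Endpoints by linear interpolation between flanking doses. Not reached: highest tested concentration assigned. GI50 marks 50% less growth.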 Activity calls are given as the source filed them. Cut-off read from the data, not from the text of the source: active = GI50 up to about 1.1 µM and inactive = higher. A value given as a limit tells only on which side of the number the result lay.

Among the test systems are EKVX; NCI-H460; RXF 393; HOP-62; HCT-15; TK-10; SF-295; NCI-H226; SNB-75; CAKI-1; LOX IMVI; SNB-19; OVCAR-8; UACC-257; MDA-N; DU-145; MCF7; T47D; NCI/ADR-RES; Hs-578T.
Experiment in all cases: NCI tumour cell line growth inhibition, 48 h

`Cc1c(C(=O)C/C(=N\O)C(=O)Nc2cc(Cl)c(Cl)cc2Cl)[n+]([O-])c2ccccc2[n+]1[O-]`: the GI50 in the assay on EKVX is 22.9 µM (inactive); in the assay on NCI-H460 it was 12.8 µM (inactive); in the assay with RXF 393, 22.5 µM (inactive); with HOP-62 it was 23.3 µM (inactive); in the assay on HCT-15 it was 8.17 µM; in the assay with TK-10, 29.2 µM (inactive). Further, the GI50 was 25.9 µM (inactive) in the assay with SF-295; 17 µM (inactive) with NCI-H226; 33.2 µM (inactive) in the assay with SNB-75; 34 µM (inactive) with CAKI-1; 6.65 µM (inactive) in the assay on LOX IMVI; 36.1 µM (inactive) in the assay on SNB-19. The GI50 was 8.91 µM (inactive) in the assay on OVCAR-8 and 7.85 µM (inactive) in the assay with UACC-257.

Regarding `COc1cc2ccnc([C@@H](OC(=O)c3ccccc3)c3ccc(OC)c(OC)c3OC)c2cc1OC`, the GI50 was > 100 µM (inactive) in the assay on EKVX; 33.6 µM (inactive) with NCI-H460; 26.9 µM (inactive) in the assay on RXF 393; 42.4 µM in the assay with HCT-15; 75.5 µM (inactive) with TK-10; 21.2 µM (inactive) with SF-295. The GI50 is 35.5 µM (inactive) in the assay on NCI-H226; 21.5 µM (inactive) in the assay on SNB-75; 30.3 µM (inactive) in the assay with CAKI-1; 39.1 µM (inactive) with LOX IMVI; 53.1 µM (inactive) with SNB-19; 51.9 µM (inactive) in the assay with OVCAR-8. Further, the GI50 in the assay on UACC-257 is > 100 µM (inactive).

Regarding `CCCCN1C(=O)c2c(Br)sc(Br)c2C1=O`, the GI50 in the assay on EKVX is 70.1 µM (inactive); in the assay with MDA-N, 33 µM (inactive); in the assay on NCI-H460, 31.6 µM (inactive); in the assay on RXF 393 it was 52 µM (inactive); with HOP-62, 26.6 µM (inactive); in the assay with DU-145 it was 36.4 µM (inactive). The GI50 was 25.7 µM in the assay with HCT-15; 60 µM (inactive) with TK-10; 43.1 µM (inactive) with SF-295; 51.1 µM (inactive) in the assay on NCI-H226; 29.5 µM (inactive) with SNB-75; 20.2 µM (inactive) with MCF7. For the same compound, the GI50 is 67.8 µM (inactive) with CAKI-1; 57.7 µM (inactive) in the assay on T47D; 32.6 µM (inactive) in the assay with LOX IMVI; 51.5 µM (inactive) in the assay with SNB-19; 38.9 µM (inactive) with OVCAR-8; 30.9 µM (inactive) in the assay with NCI/ADR-RES. Besides, the GI50 in the assay with UACC-257 is 30.4 µM (inactive).

On to `O=S(=O)(c1ccccc1)n1c(C(O)c2ccncc2)cc2ccccc21` (stereo unspecified), for which the GI50 in the assay on EKVX was 38.5 µM (inactive); with MDA-N, 39.1 µM (inactive); in the assay on NCI-H460, 26.2 µM (inactive); in the assay on RXF 393, 48.2 µM (inactive); in the assay on HOP-62 it was > 100 µM (inactive); in the assay on DU-145 it was 40.5 µM (inactive). In addition, the GI50 is 33.7 µM in the assay with HCT-15; 28.4 µM (inactive) in the assay on TK-10; 48.5 µM (inactive) in the assay with SF-295; 27 µM (inactive) in the assay on NCI-H226; 34 µM (inactive) in the assay with SNB-75; 20.9 µM (inactive) in the assay with MCF7. Also, the GI50 in the assay with CAKI-1 was 58.9 µM (inactive); in the assay on T47D, 36 µM (inactive); in the assay with LOX IMVI it was 40.3 µM (inactive); with SNB-19, 50 µM (inactive); in the assay on OVCAR-8, 50.6 µM (inactive); in the assay on NCI/ADR-RES, 35.2 µM (inactive). For the same compound, the GI50 in the assay on UACC-257 was 10.7 µM (inactive).

With `CCOC(=O)CCC(NC(=O)OCc1ccccc1)C(=O)NC(CCC(=O)OCC)C(=O)NC(CCC(=O)OCC)C(=O)NNC(=O)OC(C)(C)C` (stereo unspecified), the GI50 in the assay with EKVX was > 100 µM (inactive); with MDA-N it was > 100 µM (inactive); in the assay on NCI-H460, > 100 µM (inactive); in the assay with RXF 393, > 100 µM (inactive); in the assay with HOP-62, > 100 µM (inactive); with HCT-15, above 100 µM. Further, the GI50 in the assay with TK-10, in the assay on NCI-H226, in the assay on SNB-75, in the assay on MCF7, in the assay on SNB-19 and in the assay with OVCAR-8 was > 100 µM (inactive) in each case. The GI50 in the assay on Hs-578T and in the assay with UACC-257 was > 100 µM (inactive) each time.

On to `COC(=O)/C(C#N)=C1\CCC(O)N1` (stereo unspecified), for which the GI50 in the assay with EKVX, in the assay with NCI-H460, in the assay on RXF 393, in the assay on HOP-62, in the assay with TK-10 and in the assay on SF-295 was > 100 µM (inactive) in each case. Besides, the GI50 with NCI-H226, with SNB-75, with CAKI-1, with LOX IMVI, in the assay on SNB-19 and in the assay with OVCAR-8 was > 100 µM (inactive) in each case. Besides, in the assay with UACC-257, the GI50 was > 100 µM (inactive).

Take `C=CCN1C(=O)C(=O)N(CC=C)C(=O)C1=O`: the GI50 in the assay with EKVX is > 100 µM (inactive); in the assay on NCI-H460 it was > 100 µM (inactive); in the assay with RXF 393, > 100 µM (inactive); with HOP-62, > 100 µM (inactive); in the assay with HCT-15, above 100 µM; in the assay with TK-10, > 100 µM (inactive). Also, the GI50 with SF-295, with NCI-H226, with SNB-75, in the assay on CAKI-1, in the assay on LOX IMVI and in the assay with SNB-19 was > 100 µM (inactive) throughout. For the same compound, the GI50 with OVCAR-8 and in the assay on UACC-257 was > 100 µM (inactive) throughout.

Regarding `O=C(NNC(=S)NCc1ccccc1)c1csc(NC(=S)NC2CCCCC2)n1`, the GI50 was 19.2 µM (inactive) in the assay on EKVX; 28.9 µM (inactive) in the assay with MDA-N; 64.1 µM (inactive) in the assay on HOP-62; 59 µM (inactive) in the assay with DU-145; 37.5 µM in the assay with HCT-15; 42.5 µM (inactive) with TK-10. For the same compound, the GI50 with SF-295 is 42.1 µM (inactive); in the assay on NCI-H226, 5.93 µM (inactive); in the assay with MCF7, 29.6 µM (inactive); in the assay with CAKI-1, 47.3 µM (inactive); in the assay with T47D, 30 µM (inactive); in the assay with LOX IMVI it was 27.4 µM (inactive). The GI50 in the assay on SNB-19 is 76.6 µM (inactive); in the assay on OVCAR-8, 39.4 µM (inactive); in the assay with NCI/ADR-RES, 31.3 µM (inactive); with UACC-257, 18.6 µM (inactive).

In the case of `N=C(N)Cn1cnc2ccccc21`, the GI50 was > 100 µM (inactive) in the assay on EKVX; > 100 µM (inactive) in the assay with NCI-H460; > 100 µM (inactive) in the assay on RXF 393; > 100 µM (inactive) in the assay on HOP-62; above 100 µM with HCT-15; > 100 µM (inactive) in the assay on TK-10. Also, the GI50 in the assay on SF-295, with NCI-H226, in the assay with SNB-75, in the assay on LOX IMVI, in the assay with SNB-19 and in the assay with OVCAR-8 was > 100 µM (inactive) each time. In the assay with UACC-257, the GI50 is > 100 µM (inactive).

With `COc1cc(C(C)c2cc3c(cc2OCCN)OCO3)cc(OC)c1OC` (stereo unspecified), the GI50 was 36.2 µM (inactive) in the assay with EKVX; > 100 µM (inactive) in the assay on NCI-H460; 21.8 µM (inactive) in the assay with RXF 393; > 100 µM (inactive) with HOP-62; above 100 µM in the assay with HCT-15; 73.5 µM (inactive) in the assay on TK-10. Moreover, the GI50 in the assay on SF-295 was > 100 µM (inactive); in the assay on NCI-H226, 32.1 µM (inactive); with SNB-75 it was 18.5 µM (inactive); in the assay with CAKI-1, > 100 µM (inactive); with LOX IMVI, > 100 µM (inactive); in the assay with SNB-19, 54.8 µM (inactive). Moreover, the GI50 in the assay on OVCAR-8 was > 100 µM (inactive); in the assay on UACC-257, 6.7 µM (inactive).

On to `COc1ccc(N2C(=O)C3c4[nH]c5ccc(OC)cc5c4C4CCC(C(C)(C)C)CC4C3C2=O)cc1` (stereo unspecified), for which the GI50 with EKVX is 24.7 µM (inactive); with NCI-H460, 16.6 µM (inactive); in the assay with RXF 393 it was 16.1 µM (inactive); in the assay on HOP-62, 16 µM (inactive); with HCT-15, above 100 µM; with TK-10, 33.3 µM (inactive). For the same compound, the GI50 is 9.51 µM (inactive) with SF-295; 30.5 µM (inactive) in the assay on NCI-H226; 12.3 µM (inactive) with SNB-75; 42.6 µM (inactive) with CAKI-1; 34.2 µM (inactive) with LOX IMVI; 46.3 µM (inactive) in the assay with SNB-19. Moreover, the GI50 was 25 µM (inactive) in the assay on OVCAR-8 and 55.2 µM (inactive) in the assay on UACC-257.

`CCOC(=O)C1=C(N)N(c2ccccc2)/C(=C2\SC(=S)N(c3ccc(C)cc3)C2=O)S1`: the GI50 in the assay on EKVX is > 100 µM (inactive); in the assay on MDA-N, > 100 µM (inactive); with NCI-H460, 75.2 µM (inactive); with HOP-62 it was 22.2 µM (inactive); in the assay with DU-145 it was 89.9 µM (inactive); in the assay on HCT-15, above 100 µM. Besides, the GI50 in the assay on TK-10 was 48.4 µM (inactive); in the assay on SF-295 it was 21 µM (inactive); in the assay on NCI-H226 it was 33.6 µM (inactive); in the assay with SNB-75, 3.99 µM (inactive); in the assay on MCF7, 87.5 µM (inactive); in the assay on SNB-19 it was 29.7 µM (inactive). For the same compound, the GI50 with OVCAR-8 was 33.3 µM (inactive); in the assay with NCI/ADR-RES it was 50.5 µM (inactive); with Hs-578T, 25 µM (inactive); with UACC-257, 42.3 µM (inactive).

Consider `CCOC(=O)c1c(C)cc(=O)n2c1[nH]c1ccccc12`, for which the GI50 was > 100 µM (inactive) with EKVX; 64 µM (inactive) in the assay with MDA-N; 14.1 µM (inactive) in the assay on NCI-H460; > 100 µM (inactive) with RXF 393; > 100 µM (inactive) with DU-145; 50.9 µM in the assay with HCT-15. The GI50 is 99.3 µM (inactive) with TK-10; 74.6 µM (inactive) in the assay with SF-295; > 100 µM (inactive) in the assay with NCI-H226; > 100 µM (inactive) in the assay with MCF7; 17.2 µM (inactive) with CAKI-1; > 100 µM (inactive) with T47D. The GI50 in the assay on LOX IMVI was > 100 µM (inactive); with SNB-19, 88.3 µM (inactive); in the assay on OVCAR-8, > 100 µM (inactive); in the assay on NCI/ADR-RES, > 100 µM (inactive); in the assay on UACC-257 it was > 100 µM (inactive).
